Test results published in patent US7629359B2, “Use of piperidine derivatives as dermo-decontracting agents” (L'Oreal, priority 2004, dated 2009).

Tested on: dermis equivalent model consisting of a matrix of collagen seeded with normal human fibroblasts
Assay: Dermo-decontracting effect on dermis equivalent model (spontaneous contraction of collagen gel)
Type: cell-based
Conditions: for activity as dermo-decontracting agent in the test of Example 1: dermis equivalent test presented in Example 1

Structure (SMILES)	activity as dermo-decontracting agent in the test of Example 1	reduction of the contraction of the fibroblasts compared with the control (1 μM test compound, on average over the duration of the experiment (0, 4, 8 and 24 hours), experiment repeated three times) [%]
CN1C(=O)CN=C(c2ccccc2)c2cc(Cl)ccc21 [diazepam]	not active	–
COc1ccc([C@@H]2Sc3ccccc3N(CCN(C)C)C(=O)[C@@H]2OC(C)=O)cc1 [diltiazem]	not active	–
O=C(O)/C=C\C(=O)O.c1ccc(CCCCN2CCC(c3ccccc3)CC2)cc1 [maleic acid salt of 4-phenyl-1-(4-phenylbutyl)piperidine]	–	17
CCOC(=O)C1=C(C)NC(C)=C(C(=O)OC)C1c1cccc([N+](=O)[O-])c1 (stereo not shown) [nitrendipine]	not active	–
